Laboratory results published in ChEMBL document CHEMBL5465560, “Selectivity Literature for EUbOPEN Chemogenomic Library” (2024).

Legend:
[1] = target: Serine/threonine-protein kinase NIM1 (Homo sapiens, UniProt Q8IY84); assay: Selectivity interaction (KinomeScan (DiscoverX)) EUB0000229b NIM1K; conditions: at 10 µM
[2] = target: T1, Serine/threonine-protein kinase Sgk3 (Homo sapiens) (UniProt Q96BR1); assay: Selectivity interaction (KinomeScan (DiscoverX)) EUB0000595a SGK3; conditions: at 10 µM
T1 sequence (whole entry): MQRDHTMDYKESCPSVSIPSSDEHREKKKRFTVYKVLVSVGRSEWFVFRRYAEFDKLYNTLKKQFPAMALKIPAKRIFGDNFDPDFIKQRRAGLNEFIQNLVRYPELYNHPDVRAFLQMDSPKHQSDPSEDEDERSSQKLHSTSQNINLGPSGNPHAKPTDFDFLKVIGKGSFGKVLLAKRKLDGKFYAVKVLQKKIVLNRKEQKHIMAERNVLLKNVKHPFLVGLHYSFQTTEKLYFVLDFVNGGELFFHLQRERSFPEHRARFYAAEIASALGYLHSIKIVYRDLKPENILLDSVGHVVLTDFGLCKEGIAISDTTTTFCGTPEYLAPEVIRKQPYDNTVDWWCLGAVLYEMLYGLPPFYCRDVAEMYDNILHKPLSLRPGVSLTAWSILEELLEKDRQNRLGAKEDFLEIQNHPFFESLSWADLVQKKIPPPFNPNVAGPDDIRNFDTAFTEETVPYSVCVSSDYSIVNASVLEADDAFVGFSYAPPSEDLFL

[3] = target: Serine/threonine-protein kinase pim-1 (Homo sapiens, UniProt P11309); assay: Selectivity interaction (KinomeScan (DiscoverX)) EUB0001079a PIM1; conditions: at 1 µM
[4] = target: Receptor-type tyrosine-protein kinase FLT3 (Homo sapiens) (UniProt P36888); assay: Selectivity interaction (KinomeScan (DiscoverX)) EUB0001079a FLT3; conditions: at 1 µM
[5] = target: TRAF2 and NCK-interacting protein kinase (Homo sapiens) (UniProt Q9UKE5); assay: Selectivity interaction (KinomeScan (DiscoverX)) EUB0001079a TNIK; conditions: at 1 µM
[6] = target: Tyrosine-protein kinase Fyn (Homo sapiens) (UniProt P06241); assay: Selectivity interaction (KinomeScan (DiscoverX)) EUB0000666a FYN; conditions: at 10 µM
[7] = target: Mitogen-activated protein kinase 11 (Homo sapiens) (UniProt Q15759); assay: Selectivity interaction (KinomeScan (DiscoverX)) EUB0000666a MAPK11; conditions: at 10 µM
[8] = target: Small conductance calcium-activated potassium channel protein 1 (Homo sapiens) (UniProt Q92952); assay: Selectivity interaction (Eurofins CEREP Diversity Profile (receptors and ion channels)) EUB0000279b KCNN1; conditions: at 10 µM
[9] = target: Tyrosine-protein kinase receptor UFO (Homo sapiens) (UniProt P30530); assay: Selectivity interaction (Upstate Kinase Profiler service (Millipore)) EUB0000056c AXL; conditions: at 1 µM
[10] = target: RAC-alpha serine/threonine-protein kinase (Homo sapiens, UniProt P31749)
[11] = target: Interferon-induced, double-stranded RNA-activated protein kinase (Homo sapiens) (UniProt P19525); assay: Selectivity interaction (KinomeScan (DiscoverX)) EUB0001619a EIF2AK2; conditions: at 1 µM
[12] = target: Mitogen-activated protein kinase kinase kinase kinase 4 (Homo sapiens, UniProt O95819); assay: Selectivity interaction (KinomeScan (DiscoverX)) EUB0000607a MAP4K4; conditions: at 10 µM
[13] = tested on: Phosphatidylinositol 4,5-bisphosphate 3-kinase catalytic subunit alpha isoform (Homo sapiens), P42336 [I800L]; conditions: at 10 µM
[14] = target: Mitogen-activated protein kinase 1 (Homo sapiens, UniProt P28482); assay: Selectivity interaction (KinomeScan (DiscoverX)) EUB0000655a MAPK1; conditions: at 10 µM
[15] = target: Interferon-induced, double-stranded RNA-activated protein kinase (Homo sapiens) (UniProt P19525); assay: Selectivity interaction (KinomeScan (DiscoverX)) EUB0000699a EIF2AK2; conditions: at 10 µM
[16] = target: T2, Mitogen-activated protein kinase kinase kinase kinase 3 (Homo sapiens) (UniProt Q8IVH8); conditions: at 10 µM
T2 sequence (whole entry): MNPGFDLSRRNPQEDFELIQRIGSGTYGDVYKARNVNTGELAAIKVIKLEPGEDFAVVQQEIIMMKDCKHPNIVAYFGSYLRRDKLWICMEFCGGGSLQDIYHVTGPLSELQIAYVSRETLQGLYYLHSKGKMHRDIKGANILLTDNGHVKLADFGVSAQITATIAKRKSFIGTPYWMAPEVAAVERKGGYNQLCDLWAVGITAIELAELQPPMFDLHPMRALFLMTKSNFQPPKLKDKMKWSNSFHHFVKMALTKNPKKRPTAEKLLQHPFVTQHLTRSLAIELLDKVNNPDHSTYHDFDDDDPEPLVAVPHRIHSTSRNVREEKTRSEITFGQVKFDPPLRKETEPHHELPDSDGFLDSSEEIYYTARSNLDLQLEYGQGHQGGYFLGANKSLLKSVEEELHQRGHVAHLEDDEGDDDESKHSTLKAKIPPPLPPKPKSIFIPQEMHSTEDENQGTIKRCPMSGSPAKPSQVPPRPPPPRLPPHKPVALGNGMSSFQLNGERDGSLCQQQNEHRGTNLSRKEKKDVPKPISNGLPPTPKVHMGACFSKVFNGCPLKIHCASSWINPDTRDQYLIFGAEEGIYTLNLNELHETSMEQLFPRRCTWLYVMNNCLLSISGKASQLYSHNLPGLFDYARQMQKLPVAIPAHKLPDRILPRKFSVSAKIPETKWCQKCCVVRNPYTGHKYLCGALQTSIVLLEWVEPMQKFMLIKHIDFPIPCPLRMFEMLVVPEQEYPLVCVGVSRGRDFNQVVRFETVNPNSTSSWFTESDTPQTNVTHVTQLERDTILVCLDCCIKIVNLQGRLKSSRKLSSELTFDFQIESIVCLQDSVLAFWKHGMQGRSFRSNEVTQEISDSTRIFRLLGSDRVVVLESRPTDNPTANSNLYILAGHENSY

[17] = target: High affinity nerve growth factor receptor (Homo sapiens, UniProt P04629); assay: Selectivity interaction (Ambit KINOMEscan and KiNATiv profiling in Jurkat cells) EUB0000090b NTRK1; format: cell-based; conditions: at 1 µM
Sequence of High affinity nerve growth factor receptor (P04629 33-796 limits assumed): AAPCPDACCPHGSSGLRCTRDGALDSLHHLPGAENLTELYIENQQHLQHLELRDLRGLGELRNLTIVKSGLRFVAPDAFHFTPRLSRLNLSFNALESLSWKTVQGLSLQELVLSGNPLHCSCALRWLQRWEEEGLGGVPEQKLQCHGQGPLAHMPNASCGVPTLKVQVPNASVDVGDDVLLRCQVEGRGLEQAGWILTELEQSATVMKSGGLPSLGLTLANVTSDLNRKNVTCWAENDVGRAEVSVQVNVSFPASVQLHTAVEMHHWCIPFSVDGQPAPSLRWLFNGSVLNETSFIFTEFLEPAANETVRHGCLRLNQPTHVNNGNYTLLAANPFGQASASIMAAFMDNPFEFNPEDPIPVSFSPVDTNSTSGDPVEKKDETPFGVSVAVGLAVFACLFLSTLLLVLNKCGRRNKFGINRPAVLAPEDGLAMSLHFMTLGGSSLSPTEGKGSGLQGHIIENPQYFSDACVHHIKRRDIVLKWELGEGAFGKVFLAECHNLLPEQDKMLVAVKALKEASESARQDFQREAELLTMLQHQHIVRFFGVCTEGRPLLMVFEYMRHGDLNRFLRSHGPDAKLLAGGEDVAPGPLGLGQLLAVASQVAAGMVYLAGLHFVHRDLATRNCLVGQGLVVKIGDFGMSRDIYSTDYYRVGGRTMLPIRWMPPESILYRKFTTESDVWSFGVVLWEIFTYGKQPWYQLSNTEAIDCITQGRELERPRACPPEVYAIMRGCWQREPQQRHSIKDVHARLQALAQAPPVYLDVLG

Sequence of Interferon-induced, double-stranded RNA-activated protein kinase (Homo sapiens) (P19525 whole entry): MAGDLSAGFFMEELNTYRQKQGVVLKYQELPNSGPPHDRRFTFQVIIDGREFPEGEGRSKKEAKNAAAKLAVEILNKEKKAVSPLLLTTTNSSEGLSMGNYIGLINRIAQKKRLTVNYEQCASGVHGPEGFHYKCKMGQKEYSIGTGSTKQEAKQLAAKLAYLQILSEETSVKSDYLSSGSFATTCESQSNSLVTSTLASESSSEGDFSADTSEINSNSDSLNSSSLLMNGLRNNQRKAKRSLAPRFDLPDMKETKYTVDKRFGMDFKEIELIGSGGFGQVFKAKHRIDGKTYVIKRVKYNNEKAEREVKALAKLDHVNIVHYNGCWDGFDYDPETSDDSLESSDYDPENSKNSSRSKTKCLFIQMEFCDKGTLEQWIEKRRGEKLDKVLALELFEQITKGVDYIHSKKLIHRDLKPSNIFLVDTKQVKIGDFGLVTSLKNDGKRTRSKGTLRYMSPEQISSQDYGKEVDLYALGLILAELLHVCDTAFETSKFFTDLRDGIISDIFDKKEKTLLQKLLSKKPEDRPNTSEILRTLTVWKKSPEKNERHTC
Sequence of Serine/threonine-protein kinase pim-1 (P11309 whole entry, looked up): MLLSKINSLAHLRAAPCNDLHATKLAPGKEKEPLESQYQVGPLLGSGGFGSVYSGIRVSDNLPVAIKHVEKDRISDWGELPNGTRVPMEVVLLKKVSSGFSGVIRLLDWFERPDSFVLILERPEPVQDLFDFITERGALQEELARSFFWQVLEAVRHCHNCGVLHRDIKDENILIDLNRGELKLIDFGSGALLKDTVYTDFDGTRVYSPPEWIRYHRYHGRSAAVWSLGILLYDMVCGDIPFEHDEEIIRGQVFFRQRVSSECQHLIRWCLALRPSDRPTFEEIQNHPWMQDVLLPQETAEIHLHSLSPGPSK
Sequence of Phosphatidylinositol 4,5-bisphosphate 3-kinase catalytic subunit alpha isoform (Homo sapiens), P42336 [I800L] (P42336 whole entry I800L, canonical isoform): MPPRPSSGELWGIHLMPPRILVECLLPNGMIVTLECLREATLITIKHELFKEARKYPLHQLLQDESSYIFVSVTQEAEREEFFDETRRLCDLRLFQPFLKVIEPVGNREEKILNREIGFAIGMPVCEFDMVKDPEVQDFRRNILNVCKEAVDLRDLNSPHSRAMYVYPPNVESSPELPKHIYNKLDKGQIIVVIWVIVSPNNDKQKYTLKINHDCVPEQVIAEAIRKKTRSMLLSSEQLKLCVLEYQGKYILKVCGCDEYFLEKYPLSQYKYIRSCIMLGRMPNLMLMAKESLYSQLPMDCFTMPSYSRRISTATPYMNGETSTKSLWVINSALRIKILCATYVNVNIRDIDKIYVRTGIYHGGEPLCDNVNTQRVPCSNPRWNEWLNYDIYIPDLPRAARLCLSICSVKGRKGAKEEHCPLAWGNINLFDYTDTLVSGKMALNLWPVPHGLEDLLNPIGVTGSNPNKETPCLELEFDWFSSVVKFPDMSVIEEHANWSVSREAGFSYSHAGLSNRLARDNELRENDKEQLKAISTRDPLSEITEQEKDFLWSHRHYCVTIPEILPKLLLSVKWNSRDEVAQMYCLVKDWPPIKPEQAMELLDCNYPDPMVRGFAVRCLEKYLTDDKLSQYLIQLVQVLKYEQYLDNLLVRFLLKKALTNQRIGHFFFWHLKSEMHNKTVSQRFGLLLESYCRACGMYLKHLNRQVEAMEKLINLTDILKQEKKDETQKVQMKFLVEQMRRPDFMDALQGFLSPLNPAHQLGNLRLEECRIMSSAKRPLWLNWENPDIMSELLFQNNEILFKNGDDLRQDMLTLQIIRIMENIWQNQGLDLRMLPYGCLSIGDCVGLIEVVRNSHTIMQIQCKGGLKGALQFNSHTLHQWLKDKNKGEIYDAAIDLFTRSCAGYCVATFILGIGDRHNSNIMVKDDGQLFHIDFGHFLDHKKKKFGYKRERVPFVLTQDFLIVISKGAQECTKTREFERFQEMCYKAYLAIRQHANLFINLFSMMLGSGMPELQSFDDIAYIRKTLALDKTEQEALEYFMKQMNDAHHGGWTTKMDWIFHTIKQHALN
Sequence of Receptor-type tyrosine-protein kinase FLT3 (Homo sapiens) (P36888 whole entry): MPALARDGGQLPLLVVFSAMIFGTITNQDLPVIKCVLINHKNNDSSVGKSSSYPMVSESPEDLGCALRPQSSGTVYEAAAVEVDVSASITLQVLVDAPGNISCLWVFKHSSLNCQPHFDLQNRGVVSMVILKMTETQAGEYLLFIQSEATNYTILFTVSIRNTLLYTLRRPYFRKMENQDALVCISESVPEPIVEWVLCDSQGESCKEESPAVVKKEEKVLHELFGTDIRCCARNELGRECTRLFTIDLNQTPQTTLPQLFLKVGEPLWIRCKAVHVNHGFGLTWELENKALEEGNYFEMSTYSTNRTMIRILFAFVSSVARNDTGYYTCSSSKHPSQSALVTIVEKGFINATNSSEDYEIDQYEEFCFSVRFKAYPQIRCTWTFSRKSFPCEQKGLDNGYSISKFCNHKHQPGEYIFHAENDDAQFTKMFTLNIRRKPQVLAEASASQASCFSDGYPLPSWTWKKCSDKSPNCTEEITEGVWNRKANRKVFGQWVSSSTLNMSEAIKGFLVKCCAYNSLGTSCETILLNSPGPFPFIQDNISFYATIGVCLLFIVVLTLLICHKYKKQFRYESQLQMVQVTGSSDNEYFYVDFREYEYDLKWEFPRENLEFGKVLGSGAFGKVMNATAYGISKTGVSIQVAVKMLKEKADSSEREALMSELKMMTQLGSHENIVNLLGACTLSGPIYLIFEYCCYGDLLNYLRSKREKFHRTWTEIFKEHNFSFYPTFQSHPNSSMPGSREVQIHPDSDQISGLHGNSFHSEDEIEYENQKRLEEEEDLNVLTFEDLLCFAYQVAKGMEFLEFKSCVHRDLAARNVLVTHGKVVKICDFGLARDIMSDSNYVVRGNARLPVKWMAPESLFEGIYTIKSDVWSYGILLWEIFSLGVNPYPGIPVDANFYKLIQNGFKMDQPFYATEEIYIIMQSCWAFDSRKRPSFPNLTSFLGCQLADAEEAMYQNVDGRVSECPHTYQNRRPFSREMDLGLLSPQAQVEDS
Sequence of Mitogen-activated protein kinase 11 (Homo sapiens) (Q15759 whole entry): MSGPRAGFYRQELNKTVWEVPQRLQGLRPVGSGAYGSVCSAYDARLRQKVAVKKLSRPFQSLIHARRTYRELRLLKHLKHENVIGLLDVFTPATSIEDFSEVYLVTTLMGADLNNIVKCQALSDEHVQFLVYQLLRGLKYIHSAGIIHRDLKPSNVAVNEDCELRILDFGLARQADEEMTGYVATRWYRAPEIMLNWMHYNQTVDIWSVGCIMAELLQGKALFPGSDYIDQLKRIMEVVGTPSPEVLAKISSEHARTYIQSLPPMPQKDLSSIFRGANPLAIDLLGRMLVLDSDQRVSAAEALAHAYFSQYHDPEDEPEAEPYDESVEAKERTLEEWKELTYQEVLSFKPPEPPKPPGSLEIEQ
Sequence of RAC-alpha serine/threonine-protein kinase (P31749 whole entry): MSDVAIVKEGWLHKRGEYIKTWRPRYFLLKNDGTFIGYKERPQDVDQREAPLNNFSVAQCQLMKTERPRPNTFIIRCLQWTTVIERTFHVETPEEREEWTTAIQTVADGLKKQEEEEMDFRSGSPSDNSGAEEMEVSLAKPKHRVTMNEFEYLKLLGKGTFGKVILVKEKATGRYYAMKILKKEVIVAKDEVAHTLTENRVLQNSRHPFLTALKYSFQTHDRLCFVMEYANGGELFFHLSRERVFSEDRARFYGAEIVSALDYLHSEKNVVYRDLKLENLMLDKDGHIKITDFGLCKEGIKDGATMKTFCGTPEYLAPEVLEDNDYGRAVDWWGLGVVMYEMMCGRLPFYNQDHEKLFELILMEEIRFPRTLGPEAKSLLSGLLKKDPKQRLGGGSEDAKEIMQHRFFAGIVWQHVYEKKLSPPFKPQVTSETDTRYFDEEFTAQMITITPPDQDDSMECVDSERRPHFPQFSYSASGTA
Sequence of Mitogen-activated protein kinase 1 (P28482 whole entry): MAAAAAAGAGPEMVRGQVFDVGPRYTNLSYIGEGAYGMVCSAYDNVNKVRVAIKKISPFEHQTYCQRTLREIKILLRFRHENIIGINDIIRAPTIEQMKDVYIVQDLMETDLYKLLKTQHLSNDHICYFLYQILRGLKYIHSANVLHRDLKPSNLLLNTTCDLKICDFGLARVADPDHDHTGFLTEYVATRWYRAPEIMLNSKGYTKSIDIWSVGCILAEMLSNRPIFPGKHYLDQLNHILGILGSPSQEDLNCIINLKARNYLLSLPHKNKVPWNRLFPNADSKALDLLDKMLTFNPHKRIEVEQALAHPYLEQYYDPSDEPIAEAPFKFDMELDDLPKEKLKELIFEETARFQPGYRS

## COc1cc(N(C)c2ccnc3ccc(C(F)(F)F)cc23)cc(OC)c1OC
[1]
  % binding: 100%

## COCC(=O)NC/C=C/c1ccc2ncnc(Nc3ccc(Oc4ccc(C)nc4)c(C)c3)c2c1 [CP-724714]
[2]
  % of control: 100%

## Nc1cnc(N2CCc3cc(S(=O)(=O)Nc4c(F)cc(Cl)cc4F)cc(N4CCCC4=O)c32)nc1 [TP-020n]
[3]
  % of control: 88%
[4]
  % of control: 91%
[5]
  % of control: 100%

## O=C(NOC[C@H](O)CO)c1ccc(F)c(F)c1Nc1ccc(I)cc1F
[6]
  % of control: 64%
[7]
  % of control: 100%

## CC(=O)c1cc(-c2ccccc2OCC2CC2)c2ncccn12
[8]
  % of control: 110%

## Cc1ccc(-c2ccc3c(ccc4sc5c(c43)NC[C@@H](C)NC5=O)n2)cn1
[9]
  % of inhibition: 58%

## CCc1cccc(CC)c1NC(=O)c1nn(C)c2c1CCc1cnc(Nc3ccc(C(=O)NC4CCN(C)CC4)cc3OC(F)(F)F)nc1-2
[10]
  IC50: > 10 µM

## N#Cc1cccc(-c2c[nH]c3ncnc(N4CCOCC4)c23)c1
[11]
  % of control: 100%

## CNC(=O)Nc1ccc(-c2nc(N3CC4CCC(C3)O4)c3cnn(C4CCC5(CC4)OCCO5)c3n2)cc1
[12]
  % of control: 85%
[13]
  % of control: 5%

## CN(C)CCOc1ccc(-c2nc(-c3ccncc3)c(-c3ccc4c(c3)CC/C4=N\O)[nH]2)cc1
[14]
  % of control: 100%

## CCN(CC)CCCCNc1ncc2cc(-c3cc(OC)cc(OC)c3)c(NC(=O)NC(C)(C)C)nc2n1
[15]
  % of control: 24%
[16]
  % of control: 100%

## CN(C)C/C=C/C(=O)Nc1ccc(C(=O)N2CCCC(Nc3ncc(Cl)c(-c4c[nH]c5ccccc45)n3)C2)cc1 (configuration not stated)
[17]
  % of control: 78%
